Measurements published in paper PMC9911596 (Nature Communications, 2023).
Residue numbers refer to the chain shown, from its start.

Columns and labels:
[1] = target: T1, Vtc1/Vtc3/Vtc4 complex (VTC complex) (Saccharomyces cerevisiae, UniProt P47075+Q02725, P47075:K129A/P47075:K132A/P47075:K136A); assay: polyP synthesis, TBE-PAGE; assay type: biochemical; settings: activator; 15 mM ATP, 10 mM MgCl2, 1 mM MnCl2, 0.5 mM pyrophosphate, 27 °C, 4 h; SPX KSC mutant
T1 construct: full-length subunits co-expressed in Expi293F; Vtc1 C-terminal HA, Vtc3 N-terminal 3xFlag, Vtc4 C-terminal 2xStrep; detergent-purified; 3:1:1 pentamer; with Vacuolar transporter chaperone complex subunit 1
T1 sequence (P47075 1-721 K129A/K132A/K136A): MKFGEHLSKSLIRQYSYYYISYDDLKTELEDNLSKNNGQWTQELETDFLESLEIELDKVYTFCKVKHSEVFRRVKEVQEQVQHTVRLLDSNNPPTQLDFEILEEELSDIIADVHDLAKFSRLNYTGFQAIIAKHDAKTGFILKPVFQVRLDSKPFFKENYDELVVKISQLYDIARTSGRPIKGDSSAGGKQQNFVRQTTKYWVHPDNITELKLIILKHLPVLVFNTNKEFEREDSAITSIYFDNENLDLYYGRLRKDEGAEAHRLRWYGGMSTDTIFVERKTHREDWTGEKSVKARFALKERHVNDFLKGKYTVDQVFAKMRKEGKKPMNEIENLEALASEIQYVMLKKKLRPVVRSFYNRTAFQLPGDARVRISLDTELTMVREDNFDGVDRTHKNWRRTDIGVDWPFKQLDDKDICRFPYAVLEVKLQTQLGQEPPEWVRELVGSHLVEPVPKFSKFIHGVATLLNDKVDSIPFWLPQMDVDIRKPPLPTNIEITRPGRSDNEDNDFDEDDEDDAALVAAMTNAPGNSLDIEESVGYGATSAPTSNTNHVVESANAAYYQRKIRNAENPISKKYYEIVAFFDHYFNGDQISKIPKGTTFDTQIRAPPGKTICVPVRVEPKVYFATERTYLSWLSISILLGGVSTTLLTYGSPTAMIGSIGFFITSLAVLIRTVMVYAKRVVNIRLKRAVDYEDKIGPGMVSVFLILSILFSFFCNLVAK
T1 sequence (Q02725 1-835): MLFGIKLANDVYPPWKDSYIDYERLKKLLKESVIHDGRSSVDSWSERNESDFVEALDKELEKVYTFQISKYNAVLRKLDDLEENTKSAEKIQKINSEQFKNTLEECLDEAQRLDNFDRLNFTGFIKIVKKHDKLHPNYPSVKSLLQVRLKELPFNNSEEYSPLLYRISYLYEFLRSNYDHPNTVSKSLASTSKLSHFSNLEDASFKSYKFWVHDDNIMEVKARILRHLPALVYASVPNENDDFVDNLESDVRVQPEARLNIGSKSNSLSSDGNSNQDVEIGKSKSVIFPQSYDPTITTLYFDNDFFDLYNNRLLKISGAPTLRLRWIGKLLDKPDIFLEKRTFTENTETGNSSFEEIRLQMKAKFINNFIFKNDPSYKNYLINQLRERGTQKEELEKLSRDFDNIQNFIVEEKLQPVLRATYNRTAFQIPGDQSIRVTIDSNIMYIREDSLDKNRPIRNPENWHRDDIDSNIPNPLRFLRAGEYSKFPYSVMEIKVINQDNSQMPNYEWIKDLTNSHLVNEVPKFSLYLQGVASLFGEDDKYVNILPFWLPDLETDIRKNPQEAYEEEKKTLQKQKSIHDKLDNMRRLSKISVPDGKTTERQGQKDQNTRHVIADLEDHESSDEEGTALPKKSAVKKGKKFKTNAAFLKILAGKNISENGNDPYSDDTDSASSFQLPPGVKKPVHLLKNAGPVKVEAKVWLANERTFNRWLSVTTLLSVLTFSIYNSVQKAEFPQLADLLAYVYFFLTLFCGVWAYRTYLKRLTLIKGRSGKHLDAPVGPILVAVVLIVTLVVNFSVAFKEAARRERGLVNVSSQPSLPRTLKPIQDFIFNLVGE
T1 sequence (P40046 2-129 partner): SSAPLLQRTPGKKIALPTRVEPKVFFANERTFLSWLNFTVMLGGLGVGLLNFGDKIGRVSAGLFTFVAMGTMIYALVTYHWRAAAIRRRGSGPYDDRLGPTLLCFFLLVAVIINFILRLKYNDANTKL

[2] = target: T2, Vtc1/Vtc3/Vtc4 complex (VTC complex) (Saccharomyces cerevisiae, UniProt P47075+Q02725, P47075:K300A/P47075:R302A/P47075:K320A); assay: polyP synthesis, TBE-PAGE; assay type: biochemical; settings: activator; 15 mM ATP, 10 mM MgCl2, 1 mM MnCl2, 0.5 mM pyrophosphate, 27 °C; TTM cleft (second site) mutant
T2 construct: full-length subunits co-expressed in Expi293F; Vtc1 C-terminal HA, Vtc3 N-terminal 3xFlag, Vtc4 C-terminal 2xStrep; detergent-purified; 3:1:1 pentamer; with Vacuolar transporter chaperone complex subunit 1
T2 sequence (P47075 1-721 K300A/R302A/K320A): T1 sequence (P47075 1-721 K129A/K132A/K136A) with A129K, A132K, A136K, K300A, R302A, K320A
T2 sequence (Q02725 1-835): T1 sequence (Q02725 1-835)
T2 sequence (P40046 2-129 partner): T1 sequence (P40046 2-129 partner)

O=P(O)(O)O[C@H]1[C@H](OP(=O)(O)O)[C@@H](OP(=O)(O)O)[C@H](OP(=O)(O)O)[C@@H](OP(=O)(O)O)[C@H]1OP(=O)(O)O [InsP6]
polyP synthesis, TBE-PAGE [1]: both reduced InsP6-stimulated polyP synthesis
polyP synthesis, TBE-PAGE [2]: had little impact on InsP6-stimulated polyP synthesis by VTC complex
